According to patent US20110070270A1, “IMMUNOSTIMULATING AGENT” (priority 2008, published 2011):

Assays:
[1] = test system: mouse spleen cells; experiment: IgA production upon LPS stimulation of mouse spleen cells (ELISA of culture supernatant); assay type: cell-based; details: for IgA concentration (amount of IgA production), mean: BALB/c mouse spleen cells, 5 days culture, supernatant; for Ability to promote IgA production upon LPS stimulation: mouse spleen cells, Student's t test, significance level 5%
Source text: (§1) BALB mice (female) of 6 to 8 weeks old were purchased and fed for 1 week for habituation. A commercially available solid feed was used as a feed and tap water was used as water. In order to evaluate influences of cinacalcet and γ-glutamylvaline on antibody producing activity, a culture system using mouse spleen cells was employed. The spleen was collected from BALB-c mice (n=3). The collected spleen cells were washed and thereafter suspended in an RPMI1640 medium (10% FCS, 50 U/ml penicillin, and 50 μg/ml streptomycin). To cells adjusted to 1×10^6 per a 48 well culture plate, cinacalcet or γ-glutamylvaline (dissolved in a sterilized phosphate buffer), or a phosphate buffer as a control was added. And the cells were then stimulated with 5 μg of LPS (lipopolysaccharide, obtained from Sigma). Thereafter, the cells were cultured in a CO2 incubator at 37° C. for 5 days and the amount of IgA antibody in the supernatant was analyzed.
(§2) The amounts of IgA and IgG were measured by the ELISA method. The method for measuring IgG is shown below. 100 μl of rat anti-mouse IgG antibody (Calbiochem, 1 μg/ml in 50 mM sodium carbonate buffer, pH 8.5) solution was added to a 96 well ELISA plate and the plate was incubated at 4° C. overnight to coat each well with the anti-mouse IgG antibody. The plate was washed three times with PBST (phosphate buffered saline, 0.05% Tween 20) and subjected to a blocking treatment with 200 μl of PBS solution containing 2% BSA at 37° C. for 1 hr.
(§3) The plate was washed three times with PBST. Thereafter, 100 μl of the culture supernatant (9 fold diluted with PBST containing 1% BSA) was added and allowed to react at 37° C. for 2 hr. The plate was again washed four times with PBST. 100 μl of an alkaline phosphatase-conjugated anti-mouse IgG (rabbit) (BD Biosciences) solution diluted 2000 fold with PBST containing 1% BSA was added and allowed to react at 37° C. for 1 hour. The plate was washed six times and then colored with p-nitrophenyl phosphate. The reaction was terminated with 100 μl/well of 3 M NaOH and the absorbance at 405 nm was measured.
The measurement of IgA was carried out in accordance with the method for IgG except that a rat anti-mouse IgA antibody (BD Biosciences) was used as the immobilized antibody, a biotinylated anti-mouse IgA antibody (rat) (BD Biosciences) was used as the labeled antibody, 3,3′,5,5′-tetramethylbenzidine solution (TMB substrate-developing solution, Sigma) was used as the chromogenic substrate, termination of the coloring was carried out using 1 M sulfuric acid, and the absorbance at 450 nm was measured.
(§4) A statistical analysis was carried out by Student's t test and a significance level of 5% or less was considered as significant difference.

[2] = test system: mouse spleen cells; experiment: IgG production upon ConA stimulation of mouse spleen cells (ELISA of culture supernatant); assay type: cell-based; details: for IgG concentration (amount of IgG production), mean: BALB/c mouse spleen cells, 5 days culture, supernatant; for Ability to promote IgG production upon ConA stimulation: mouse spleen cells, Student's t test, significance level 5%
Source text: as §1
In the same manner, the cells adjusted to 1×10^6 per a 48 well culture plate were, in the presence or absence of cinacalcet or γ-glutamylvaline, stimulated with 0.5 μg of ConA (concanavalin A). Thereafter, the cells were cultured in a CO2 incubator at 37° C. for 5 days and the amount of IgG antibody in the supernatant was analyzed.
as §2, §3, §4

SMILES | IgA concentration (amount of IgA production), mean ([1]; LPS stimulation + test substance 0.1 μM) [ng/mL] | Ability to promote IgA production upon LPS stimulation [1] | IgG concentration (amount of IgG production), mean ([2]; ConA stimulation + test substance 0.1 μM) [ng/mL] | Ability to promote IgG production upon ConA stimulation [2] | IgA concentration (amount of IgA production), mean ([1]; LPS stimulation + test substance 0.1 mM) [ng/mL] | IgG concentration (amount of IgG production), mean ([2]; ConA stimulation + test substance 0.1 mM) [ng/mL]
C[C@@H](NCCCc1cccc(C(F)(F)F)c1)c1cccc2ccccc12 [Cinacalcet, (R)—N-(3-(3-(trifluoromethyl)phenyl)propyl)-1-(1-naphthyl)ethylamine] | 26.09 | significantly confirmed | 55.24 | significantly confirmed |  | 
CC(C)[C@H](NC(=O)CC[C@H](N)C(=O)O)C(=O)O [γ-GluVal, γ-glutamylvaline] |  | significantly confirmed |  | significantly confirmed | 25.28 | 62.78
